The record followed here is patent US12590951B2, “Culture medium and culture method for primary cells of intestinal cancer” (PRECEDO PHARMACEUTICALS CO., LTD, priority 2021, dated 2026).

Read-outs that look alike come from different tables or passages of the source.

The test system of assay [1] is primary cells of intestinal cancer. The assay is described as follows: Effect of single additives in Basic Medium on proliferation of primary cells of intestinal cancer (cell count). The format is cell-based, human. On the set-up: key: +: compared with the Basic Medium, the medium added with the additive(s) has the effect of promoting the proliferation of primary cells of intestinal cancer isolated from intestinal cancer tissue in at least two cases; −: the medium added with the additive(s) has the effect of inhibiting the proliferation of primary cells of intestinal cancer isolated from intestinal cancer tissue in at least one case; ∘: the medium added with the additive(s) has no significant effect on the proliferation of primary cells of intestinal cancer isolated from intestinal cancer tissue in at least two cases. On the procedure: First, Basic Medium was prepared. The formulation of Basic Medium is: DMEM/F12 medium (purchased from Corning)+5 μM Y27632 (purchased from MCE)+5% (v/v) fetal bovine serum (purchased from Excell Bio)+100 μg/mL Primocin (purchased from InvivoGen, 0.2% (v/v), the concentration of commercial product is 50 mg/ml).
Different types of additives (see Table 1) were added to the Basic Medium to prepare the culture mediums for primary cells of intestinal cancer containing different components.
The culture mediums of different components as shown in Table 1 were added into a 48-well plate at a volume of 1 mL/well. Primary cells of intestinal cancer isolated from two cases of intestinal cancer tissues (numbered OE0042 and OE(E)003) according to the above step (2) were inoculated into the 48-well culture plate at a cell density of 3×10^4 cells/well, and were cultured at 37° C., under 5% CO2 concentration. After culturing for 7-10 days, when the cells grew to 85%, the culture medium was discarded, and 100 μL/well of 0.05% trypsin (purchased from Gibco) was used to rinse the cells once. After the trypsin was removed, 200 μL of 0.05% trypsin was added to each well. The plate was then placed in a 37° C., 5% CO2 incubator for 10 minutes, and the cells were observed under a microscope (CNOPTEC, BDS400), showing that the cells had completely digested. 300 μL of DMEM/F12 medium containing 10% serum (Excell Bio, FND500) was added to stop the digestion. 20 μL of the resultant was added into a cell counting plate (Countstar, specification: 50 pieces/box), and the total number of cells was counted with a cell counter (Countstar, IC1000). Specifically, Basic Medium without any additives was used as an experimental control, and the experimental results are shown in Table 1.

The test system is the same in assay [2]. The assay is described as follows: Effect of different concentrations of factors in CA-1 medium on proliferation (ratio of cell number to Blank Control). Type of assay: cell-based, human.
Setting [3] is: additive at the final concentration in Basic Medium, samples OE0042 and OE(E)003, 7-10 days, compared with Basic Medium.
[4] abbreviates: according to proliferation ratio vs Blank Control, FIGS. 2A-2J.

As for `Cc1cccc(-c2nn(C(=S)Nc3ccccc3)cc2-c2ccnc3ccccc23)n1` [A8301, reference compound], the “Level of promoting cell proliferation” value in assay [1] (setting [3]) is on record as “−”. Moreover, the “amount in culture medium, more preferably” value in assay [2] (setting [4]) was found to be 200 nM.
In the case of `Oc1ccc(-c2nc(-c3ccncc3)c(-c3ccc(F)cc3)[nH]2)cc1` [SB202190, reference compound], the “Level of promoting cell proliferation” value in assay [1] (setting [3]) is “∘”.
For `C[C@@H](N)[C@H]1CC[C@H](C(=O)Nc2ccncc2)CC1` [Y-27632, reference compound], in assay [2] (setting [4]), the “amount in culture medium, even more preferably” value was found to be 5 µM and the “amount in culture medium, preferably” value lay within 2.5 to 40 µM.
Regarding `NC(=O)CC[C@H](N)C(=O)O` [glutamine, reference compound], the “Level of promoting cell proliferation” value in assay [1] (setting [3]) was “−”.
As to `C[C@]12CCC(=O)C=C1CC[C@@H]1[C@@H]2[C@@H](O)C[C@@]2(C)[C@H]1CC[C@]2(O)C(=O)CO` [hydrocortisone, reference compound], the “Level of promoting cell proliferation” value in assay [1] (setting [3]) is “∘”.
`NC(=O)c1cccnc1` [nicotinamide, reference compound]: the “Level of promoting cell proliferation” value in assay [1] (setting [3]) was “+”. For the same compound, in assay [2] (setting [4]), the “amount in the culture medium, even more preferably” value turned out to be 4 mM; the “amount in the culture medium, more preferably” value was 4 to 8 mM; the “amount in the culture medium, preferably” value lay in the range of 2 to 8 mM.
As for `CCCCC[C@H](O)/C=C/[C@H]1[C@H](O)CC(=O)[C@@H]1C/C=C\CCCC(=O)O` [prostaglandin E2, reference compound], the “Level of promoting cell proliferation” value in assay [1] (setting [3]) is reported as “−”.
For TGF-β1: medium additive from R&D, in assay [1] (setting [3]), the “Level of promoting cell proliferation” value was “−”.
Same read-out and setting: with “basic fibroblast growth factor: medium additive, growth factor from R&D” the entry was “−”.
On to cholera toxin, for which the “Level of promoting cell proliferation” value in assay [1] was “+”. Further, the “amount in culture medium, even more preferably” value in assay [2] was 5 ng/mL.
“epidermal growth factor: medium additive, growth factor from R&D (NSDSECPLSHDGYCLHDGVCMYIEALDKYACNCVVGYIGERCQYRDLKWWELR; Epidermal growth factor; UniProt P01133 971-1023, looked up)”: the “Level of promoting cell proliferation” value in assay [1] (setting [3]) was “∘”.
Same read-out and setting: with “hepatocyte growth factor: medium additive, growth factor from Peprotech” the entry was “∘”.
With “insulin-like growth factor-1: medium additive, growth factor from R&D”, the “Level of promoting cell proliferation” value in assay [1] (setting [3]) was “+”. In assay [2] (setting [4]), the “amount in culture medium, more preferably” value was 45 ng/mL and the “amount in culture medium, preferably” value was in the range of 5 to 405 ng/mL.
For the compound insulin: medium additive from Peprotech, the “Level of promoting cell proliferation” value in assay [1] (setting [3]) is on record as “+”. Further, in assay [2] (setting [4]), the “amount in culture medium, even more preferably” value was determined as 2000 ng/mL; the “amount in culture medium, more preferably” value was in the range of 1000 to 2000 ng/mL; the “amount in culture medium, preferably” value was 500 to 4000 ng/mL.
